How the values were obtained:
EP3 receptors = molecular target: T1, EP3 receptors (Homo sapiens, UniProt P43115); assay: human EP3 calcium mobilisation assay (CHO-K1 cells, PGE2, FLIPR); assay type: cell-based; conditions: free bases or sodium salts; averages of a number of experiments; read-out: functional pKi value, human EP3 calcium mobilisation assay (converted)
T1 construct: expressed in transfected cells; host or cells: CHO-K1
T1 sequence (P43115 1-390): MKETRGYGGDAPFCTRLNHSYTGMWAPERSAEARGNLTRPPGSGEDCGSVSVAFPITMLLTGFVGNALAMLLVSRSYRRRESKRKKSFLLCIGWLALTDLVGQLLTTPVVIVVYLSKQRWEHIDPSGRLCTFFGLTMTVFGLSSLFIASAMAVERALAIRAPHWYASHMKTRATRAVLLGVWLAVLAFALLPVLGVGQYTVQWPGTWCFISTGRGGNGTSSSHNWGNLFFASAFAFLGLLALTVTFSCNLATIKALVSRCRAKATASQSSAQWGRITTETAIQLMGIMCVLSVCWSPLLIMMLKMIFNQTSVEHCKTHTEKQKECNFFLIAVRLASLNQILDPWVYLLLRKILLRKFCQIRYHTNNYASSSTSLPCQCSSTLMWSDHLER
Protocol: (§1) Briefly, the antagonist properties of compounds are assessed by their ability to inhibit the mobilisation of intracellular calcium ([Ca^2+]i) in response to activation of EP1 or EP3 receptors by the natural agonist hormone prostaglandin E2 (PGE2). Increasing concentrations of antagonist reduce the amount of calcium that a given concentration of PGE2 can mobilise. The net effect is to displace the PGE2 concentration-effect curve to higher concentrations of PGE2. The amount of calcium produced is assessed using a calcium-sensitive fluorescent dye such as Fluo-4, AM and a suitable instrument such as a Fluorimetric Imaging Plate Reader (FLIPR). Increasing amounts of [Ca^2+]i produced by receptor activation increase the amount of fluorescence produced by the dye and give rise to an increasing signal. The signal may be detected using the FLIPR instrument and the data generated may be analysed with suitable curve-fitting software.
(§2) The human EP1 or EP3 calcium mobilisation assay (hereafter referred to as ‘the calcium assay’) utilises Chinese hamster ovary-K1 (CHO-K1) cells into which a stable (pCIN; BioTechniques 20 (1996): 102-110) vector containing either EP1 or EP3 cDNA has previously been transfected. Cells are cultured in suitable flasks containing culture medium such as DMEM:F-12 supplemented with 10% v/v foetal calf serum, 2 mM L-glutamine, 0.25 mg/ml geneticin, 100 μM flurbiprofen and 10 µg/ml puromycin.
(§3) For assay, cells are harvested using a proprietary reagent that dislodges cells such as Versene. Cells are re-suspended in a suitable quantity of fresh culture media for introduction into a 384-well plate. Following incubation for 24 hours at 37° C. the culture media is replaced with a medium containing Fluo-4 and the detergent pluronic acid, and a further incubation takes place. Concentrations of compounds are then added to the plate in order to construct concentration-effect curves. This may be performed on the FLIPR in order to assess the agonist properties of the compounds. Concentrations of PGE2 are then added to the plate in order to assess the antagonist properties of the compounds.
(§4) The data so generated may be analysed by means of a computerised curve-fitting routine. The concentration of compound that elicits a half-maximal inhibition of the calcium mobilisation induced by PGE2 (pIC50) may then be estimated.

TP receptor = molecular target: T2, TP receptor (Homo sapiens, UniProt P21731); assay: human TP calcium mobilisation assay (CHO-K1 cells, U46619, FLIPR); assay type: cell-based; conditions: free bases or sodium salts; read-out: functional pKi, human TP calcium mobilisation assay (converted)
T2 construct: expressed in transfected cells; host or cells: CHO-K1
T2 sequence (P21731 1-343): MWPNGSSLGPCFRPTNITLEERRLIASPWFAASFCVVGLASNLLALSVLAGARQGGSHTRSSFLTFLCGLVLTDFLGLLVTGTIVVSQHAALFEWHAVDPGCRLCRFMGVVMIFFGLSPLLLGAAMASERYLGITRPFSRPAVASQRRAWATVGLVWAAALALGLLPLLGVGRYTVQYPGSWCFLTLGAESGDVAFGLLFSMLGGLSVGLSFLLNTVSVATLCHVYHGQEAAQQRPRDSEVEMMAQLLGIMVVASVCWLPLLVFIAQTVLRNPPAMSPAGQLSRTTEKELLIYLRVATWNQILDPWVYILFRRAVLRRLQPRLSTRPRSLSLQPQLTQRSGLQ
Protocol: as §1, with “To determine if a compound has agonist or antagonist activity at the TP receptor a functional calcium mobilisation assay may be performed. Briefly,” for “Briefly,”, “TP” for “EP1 or EP3”, “stable TXA2 mimetic U46619 (9,11-dideoxy-11α,9α-epoxy-methanoprostaglandin F2 α; commercially available from e.g Sigma-Aldrich).” for “natural agonist hormone prostaglandin E2 (PGE2).”, “U46619” for “PGE2”, “curve.” for “curve to higher concentrations of PGE2.”, “software. The agonist activity of the compounds are determined by their ability to cause an increase in intracellular mobilisation in the absence of U46619.” for “software.”
as §2, with “TP” for “EP1 or EP3”, “assay” for “assay (hereafter referred to as ‘the calcium assay’)”, “TP” for “either EP1 or EP3”, “μg/ml” for “µg/ml”
as §3, with “96-well” for “384-well”, “U46619” for “PGE2”
The data so generated may be analysed by means of a computerised curve-fitting routine. The concentration of compound that elicits a half-maximal inhibition of the calcium mobilisation induced by U46619 (plC50) may then be estimated, and the percentage activation caused by the compounds directly can be used to determine if there is any agonism present.

EP1 receptors [1] = molecular target: T3, EP1 receptors (Homo sapiens, UniProt P34995); assay: human EP1 calcium mobilisation assay (CHO-K1 cells, PGE2, FLIPR); assay type: cell-based; parameters: expressed in transfected cells; host or cells: CHO-K1; conditions: free bases or sodium salts; averages of a number of experiments; read-out: functional pKi value, human EP1 calcium mobilisation assay (converted)
T3 sequence (P34995 1-402): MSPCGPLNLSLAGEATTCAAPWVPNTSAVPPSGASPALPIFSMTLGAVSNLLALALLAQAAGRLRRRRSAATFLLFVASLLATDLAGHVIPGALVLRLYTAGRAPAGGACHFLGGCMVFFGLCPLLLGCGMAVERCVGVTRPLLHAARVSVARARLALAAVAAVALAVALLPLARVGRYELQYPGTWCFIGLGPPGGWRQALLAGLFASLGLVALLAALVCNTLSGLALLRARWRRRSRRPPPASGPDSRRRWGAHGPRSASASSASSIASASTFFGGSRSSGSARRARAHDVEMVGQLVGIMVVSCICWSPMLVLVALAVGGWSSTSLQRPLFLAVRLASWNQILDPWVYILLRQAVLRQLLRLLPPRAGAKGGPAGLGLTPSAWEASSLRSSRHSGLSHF
Protocol: as §1, §2, §3, §4

EP1 receptors [2] = molecular target: T3, EP1 receptors; assay: Binding assay for the human prostanoid EP1 receptor (competition with [3H]-PGE2); parameters: expressed in transfected cells; host or cells: CHO-K1 (membrane fraction); conditions: averages of a number of experiments; Example 3 as sodium salt; read-out: pIC50 value in the binding assay for the human prostanoid EP1 receptor (converted)
Protocol: Binding Assay for the Human Prostanoid EP1 Receptor
Competition assay using [^3H]-PGE2.
Compound potencies are determined using a radioligand binding assay. In this assay compound potencies are determined from their ability to compete with tritiated prostaglandin E2 ([^3H]-PGE2) for binding to the human EP1 receptor.
This assay utilises Chinese hamster ovary-K1 (CHO-K1) cells into which a stable vector containing the EP1 cDNA has previously been transfected. Cells are cultured in suitable flasks containing culture medium such as DMEM:F-12 supplemented with 10% v/v foetal calf serum, 2 mM L-glutamine, 0.25 mg/ml geneticin, 10 μg/ml puromycin and 10 μM indomethacin.
Cells are detached from the culture flasks by incubation in calcium and magnesium free phosphate buffered saline containing 1 mM disodium ethylenediaminetetraacetic acid (Na2EDTA) and 10 μM indomethacin for 5 min. The cells are isolated by centrifugation at 250×g for 5 mins and suspended in an ice cold buffer such as 50 mM Tris, 1 mM Na2EDTA, 140 mM NaCl, 10 μM indomethacin (pH 7.4). The cells are homogenised using a Polytron tissue disrupter (2×10s burst at full setting), centrifuged at 48,000×g for 20 mins and the pellet containing the membrane fraction is washed (optional) three times by suspension and centrifugation at 48,000×g for 20 mins. The final membrane pellet is suspended in an assay buffer such as 10 mM 2-[N-morpholino]ethanesulphonic acid, 1 mM Na2EDTA, 10 mM MgCl2 (pH 6). Aliquots are frozen at −80° C. until required.
For the binding assay the cell membranes, competing compounds and [^3H]-PGE2 (3 nM final assay concentration) are incubated in a final volume of 100 μl for 30 min at 30° C. All reagents are prepared in assay buffer. Reactions are terminated by rapid vacuum filtration over GF/B filters using a Brandell cell harvester. The filters are washed with ice cold assay buffer, dried and the radioactivity retained on the filters is measured by liquid scintillation counting in Packard TopCount scintillation counter.
The data are analysed using non linear curve fitting techniques to determine the concentration of compound producing 50% inhibition of specific binding (IC50).

SMILES | Ki (EP3 receptors) [µM] | Ki (TP receptor) [µM] | Ki (EP1 receptors [1]) [µM] | IC50 (EP1 receptors [2]) [µM]
CC(C)COc1ccc(Cl)cc1Cc1cccc(C(=O)O)n1 [Example 15, Sodium 6-({5-chloro-2-[(2-methylpropyl)oxy]phenyl}methyl)-2-pyridinecarboxylate] | > 10 | > 1 | < 1 | –
O=C(O)c1cncc(Cc2cc(Cl)ccc2OCc2c(F)cccc2F)c1 [Example 27, Sodium 5-[(5-chloro-2-{[(2,6-difluorophenyl)methyl]oxy}phenyl)methyl]-3-pyridinecarboxylate] | – | – | – | > 1
CC(C)(C)Oc1ccc(Cl)cc1Cc1cccc(C(=O)O)n1 [Example 41, 6-({5-Chloro-2-[(1,1-dimethylethyl)oxy]phenyl}methyl)-2-pyridinecarboxylic acid] | – | – | > 1 | > 1

Source: patent US7759369B2, “Pyridine compounds for the treatment of prostaglandin mediated diseases” (Glaxo Group Limited, priority 2004, dated 2010)
